Data: patent US8153167B2, “Herbal medicine for osteoporosis and related conditions” (Medipearl Pte Ltd., priority 2007, dated 2012)
Where two headings read alike, the source gives them in different places.

Tests used:
UMR 106 cell line = details: UMR 106 cells in vitro; Wang et al. 2001, Meng et al. 2004; cited from earlier work
ovariectomized rats = experiment: ovariectomized rat osteoporosis animal model; type: in vivo; details: femur, three months, dose not given
Protocol: Materials have been tested in ovariectomized rats, a popular and generally accepted osteoporosis animal model.
After orally dosing continuously for three months at 0.12, 0.25, 0.5 and 0.8 g/kg/day, twice a day, the bone mass index, wet weight and dry weight of femur, bone mineral densities of femur and lumbar were measured and calculated. Body weights of rats were measured weekly.
The effects of the purified composition on the body weight of the rats in the groups described above were determined.
We measured the body weight of each experimental animal group weekly.

osteoblast-like cells = details: Kim et al. (2003), Ha (2003), cited from earlier work
[1] = system: human osteoblast-like cell lines, MG-63 and hFOB; details: Kuo et al. (2005); cited from earlier work

| Structure (SMILES) | osteoblastic proliferation activity (UMR 106 cell line) | proliferation of osteoblast-like cells (osteoblast-like cells) | further results |
| --- | --- | --- | --- |
| CC(C)=CCOc1c2occc2cc2ccc(=O)oc12 [imperatorin] | less effective than osthole |  |  |
| NCCCC(O)(P(=O)(O)O)P(=O)(O)O [Fosamax ®] |  |  | Wet Weight (mg/cm) ( x ± s) (ovariectomized rats): 205.8757 ± 18.32 mg/cm |
| OCC1=C[C@@H](O)[C@@H]2C=CO[C@@H](O[C@@H]3O[C@H](CO)[C@@H](O)[C@H](O)[C@H]3O)[C@H]12 [aucubin] |  | increased the proliferation of osteoblast-like cells |  |
| COc1ccc2ccc(=O)oc2c1CC=C(C)C [Osthole, osthole] | significantly promoted the cells' activity |  | differentiation of osteoblast-like cells [1]: significantly induced the differentiation |
| COC(=O)C1=CO[C@@H](O[C@@H]2O[C@H](CO)[C@@H](O)[C@H](O)[C@H]2O)[C@@H]2C(CO)=CC[C@H]12 [geniposide] |  | increased the proliferation of osteoblast-like cells |  |
| O=C(O)C1=CO[C@@H](O[C@@H]2O[C@H](CO)[C@@H](O)[C@H](O)[C@H]2O)[C@@H]2C(CO)=CC[C@H]12 [GPA, geniposidic acid] |  | increases the proliferation of osteoblast-like cells | proliferation of osteoblast-like cells (osteoblast-like cells; listed as geniposidic acid): increased the proliferation of osteoblast-like cells |
| COc1c2ccoc2cc2oc(=O)ccc12 [Bergapten, bergapten] | less effective than osthole |  |  |
